Measurements from ChEMBL document CHEMBL3785084, “Rational modification of the lead molecule: Enhancement in the anticancer and dihydrofolate reductase inhibitory activity” (Bioorg Med Chem Lett, 2016).

How the values were obtained:
Type in all cases: functional
CCRF-CEM = assay: Cytotoxicity against human CCRF-CEM cells assessed as cell growth at 10^-5 M after 48 hrs by sulforhodamine B assay; conditions: read-out: Activity
K562 = assay: Cytotoxicity against human K562 cells assessed as cell growth at 10^-5 M after 48 hrs by sulforhodamine B assay; conditions: K562, 48 h, read-out: Activity
[1] = Cytotoxicity against human MOLT4 cells assessed as cell growth at 10^-5 M after 48 hrs by sulforhodamine B assay; conditions: MOLT-4, 48 h, read-out: Activity
[2] = Cytotoxicity against human RPMI8226 cells assessed as cell growth at 10^-5 M after 48 hrs by sulforhodamine B assay; conditions: RPMI-8226, 48 h, read-out: Activity
SR = assay: Cytotoxicity against human SR cells assessed as cell growth at 10^-5 M after 48 hrs by sulforhodamine B assay; conditions: read-out: Activity
EKVX = assay: Cytotoxicity against human EKVX cells assessed as cell growth at 10^-5 M after 48 hrs by sulforhodamine B assay; conditions: read-out: Activity
NCI-H23 = assay: Cytotoxicity against human NCI-H23 cells assessed as cell growth at 10^-5 M after 48 hrs by sulforhodamine B assay; conditions: NCI-H23, 48 h, read-out: Activity
NCI-H522 = assay: Cytotoxicity against human NCI-H522 cells assessed as cell growth at 10^-5 M after 48 hrs by sulforhodamine B assay; conditions: NCI-H522, 48 h, read-out: Activity
[3] = Cytotoxicity against human HCT116 cells assessed as cell growth at 10^-5 M after 48 hrs by sulforhodamine B assay; conditions: HCT-116, 48 h, read-out: Activity
HT-29 = assay: Cytotoxicity against human HT-29 cells assessed as cell growth at 10^-5 M after 48 hrs by sulforhodamine B assay; conditions: HT-29, 48 h, read-out: Activity
[4] = Cytotoxicity against human SW620 cells assessed as cell growth at 10^-5 M after 48 hrs by sulforhodamine B assay; conditions: SW-620, 48 h, read-out: Activity
[5] = Cytotoxicity against human SF268 cells assessed as cell growth at 10^-5 M after 48 hrs by sulforhodamine B assay; conditions: SF-268, 48 h, read-out: Activity
[6] = Cytotoxicity against human SF295 cells assessed as cell growth at 10^-5 M after 48 hrs by sulforhodamine B assay; conditions: SF-295, 48 h, read-out: Activity
[7] = Cytotoxicity against human SF539 cells assessed as cell growth at 10^-5 M after 48 hrs by sulforhodamine B assay; conditions: SF-539, 48 h, read-out: Activity
[8] = Cytotoxicity against human SNB75 cells assessed as cell growth at 10^-5 M after 48 hrs by sulforhodamine B assay; conditions: SNB-75, 48 h, read-out: Activity
Malme-3M = assay: Cytotoxicity against human MALME-3M cells assessed as cell growth at 10^-5 M after 48 hrs by sulforhodamine B assay; conditions: read-out: Activity
M14 = assay: Cytotoxicity against human M14 cells assessed as cell growth at 10^-5 M after 48 hrs by sulforhodamine B assay; conditions: M14, 48 h, read-out: Activity
MDA-MB-435 = assay: Cytotoxicity against human MDA-MB-435 cells assessed as cell growth at 10^-5 M after 48 hrs by sulforhodamine B assay; conditions: MDA-MB-435, 48 h, read-out: Activity
SK-MEL-28 = assay: Cytotoxicity against human SK-MEL-28 cells assessed as cell growth at 10^-5 M after 48 hrs by sulforhodamine B assay; conditions: SK-MEL-28, 48 h, read-out: Activity
SK-MEL-5 = assay: Cytotoxicity against human SK-MEL-5 cells assessed as cell growth at 10^-5 M after 48 hrs by sulforhodamine B assay; conditions: SK-MEL-5, 48 h, read-out: Activity
[9] = Cytotoxicity against human UACC62 cells assessed as cell growth at 10^-5 M after 48 hrs by sulforhodamine B assay; conditions: UACC-62, 48 h, read-out: Activity
[10] = Cytotoxicity against human IGROV1 cells assessed as cell growth at 10^-5 M after 48 hrs by sulforhodamine B assay; conditions: IGROV-1, 48 h, read-out: Activity
[11] = Cytotoxicity against human OVCAR4 cells assessed as cell growth at 10^-5 M after 48 hrs by sulforhodamine B assay; conditions: OVCAR-4, 48 h, read-out: Activity
[12] = Cytotoxicity against human OVCAR8 cells assessed as cell growth at 10^-5 M after 48 hrs by sulforhodamine B assay; conditions: OVCAR-8, 48 h, read-out: Activity
[13] = Cytotoxicity against human SKOV3 cells assessed as cell growth at 10^-5 M after 48 hrs by sulforhodamine B assay; conditions: SK-OV-3, 48 h, read-out: Activity
A498 = assay: Cytotoxicity against human A498 cells assessed as cell growth at 10^-5 M after 48 hrs by sulforhodamine B assay; conditions: A498, 48 h, read-out: Activity
ACHN = assay: Cytotoxicity against human ACHN cells assessed as cell growth at 10^-5 M after 48 hrs by sulforhodamine B assay; conditions: read-out: Activity
[14] = Cytotoxicity against human Caki1 cells assessed as cell growth at 10^-5 M after 48 hrs by sulforhodamine B assay; conditions: CAKI-1, 48 h, read-out: Activity
[15] = Cytotoxicity against human TK10 cells assessed as cell growth at 10^-5 M after 48 hrs by sulforhodamine B assay; conditions: TK-10, 48 h, read-out: Activity
[16] = Cytotoxicity against human UO31 cells assessed as cell growth at 10^-5 M after 48 hrs by sulforhodamine B assay; conditions: UO-31, 48 h, read-out: Activity
[17] = Cytotoxicity against human DU145 cells assessed as cell growth at 10^-5 M after 48 hrs by sulforhodamine B assay; conditions: DU-145, 48 h, read-out: Activity
MCF7 = assay: Cytotoxicity against human MCF7 cells assessed as cell growth at 10^-5 M after 48 hrs by sulforhodamine B assay; conditions: MCF7, 48 h, read-out: Activity
MDA-MB-231 = assay: Cytotoxicity against human MDA-MB-231 cells assessed as cell growth at 10^-5 M after 48 hrs by sulforhodamine B assay; conditions: MDA-MB-231, 48 h, read-out: Activity
[18] = Cytotoxicity against human Hs 578T cells assessed as cell growth at 10^-5 M after 48 hrs by sulforhodamine B assay; conditions: read-out: Activity
[19] = Cytotoxicity against human BT549 cells assessed as cell growth at 10^-5 M after 48 hrs by sulforhodamine B assay; conditions: BT-549, 48 h, read-out: Activity
T47D = assay: Cytotoxicity against human T47D cells assessed as cell growth at 10^-5 M after 48 hrs by sulforhodamine B assay; conditions: read-out: Activity
MDA-MB-468 = assay: Cytotoxicity against human MDA-MB-468 cells assessed as cell growth at 10^-5 M after 48 hrs by sulforhodamine B assay; conditions: MDA-MB-468, 48 h, read-out: Activity
[20] = Cytotoxicity against human HOP92 cells assessed as cell growth at 10^-5 M after 48 hrs by sulforhodamine B assay; conditions: HOP-92, 48 h, read-out: Activity

Structure (SMILES)	growth at 10 µM (CCRF-CEM)	growth at 10 µM (K562)	growth at 10 µM [1]	growth at 10 µM [2]	growth at 10 µM (SR)	growth at 10 µM (EKVX)	growth at 10 µM (NCI-H23)	growth at 10 µM (NCI-H522)	growth at 10 µM [3]	growth at 10 µM (HT-29)	growth at 10 µM [4]	growth at 10 µM [5]	growth at 10 µM [6]	growth at 10 µM [7]	growth at 10 µM [8]	growth at 10 µM (Malme-3M)	growth at 10 µM (M14)	growth at 10 µM (MDA-MB-435)	growth at 10 µM (SK-MEL-28)	growth at 10 µM (SK-MEL-5)	further results
COc1cc(/C=C2\C(=O)Nc3ccccc32)cc(OC)c1O	26.7%	7.58%	0.62%	46.6%	-10.3%	110%	66.4%	8.78%	46.4%	75.7%	31.5%	78.3%	60.6%	68.8%	23.1%	118%	53.6%	-25.3%	90.2%	45.7%	growth at 10 µM [9]: 72.1%; growth at 10 µM [10]: 70.2%; growth at 10 µM [11]: 89.1%; growth at 10 µM [12]: 78.5%; growth at 10 µM [13]: 93.5%; growth at 10 µM (A498): 52.5%; growth at 10 µM (ACHN): 77%; growth at 10 µM [14]: 37.7%; growth at 10 µM [15]: 88.5%; growth at 10 µM [16]: 60%; growth at 10 µM [17]: 92.5%; growth at 10 µM (MCF7): 30.8%; growth at 10 µM (MDA-MB-231): 63.1%; growth at 10 µM [18]: 18.4%; growth at 10 µM [19]: 74.8%; growth at 10 µM (T47D): 49.6%; growth at 10 µM (MDA-MB-468): 20.4%
O=C1Nc2ccccc2/C1=C/c1cn(CC(O)Cn2cc(/C=C3\C(=O)Nc4ccccc43)c3ccccc32)c2ccccc12 (centres undefined)	-30.6%	-16.7%	-29.4%	-41.7%	-2.94%	-62.3%	-67.3%	-17.4%	-64.2%	-20.2%	-60.4%	-62%	-84.7%	-77.7%	-95.9%	-76%	-81.4%	-87.6%	-85%	-80.2%	growth at 10 µM [20]: -73.9%; growth at 10 µM [9]: -75.2%; growth at 10 µM [10]: -67.4%; growth at 10 µM [11]: -51.7%; growth at 10 µM [12]: 1.35%; growth at 10 µM [13]: -38.2%; growth at 10 µM (A498): -73.2%; growth at 10 µM (ACHN): -68.4%; growth at 10 µM [14]: 9.83%; growth at 10 µM [15]: -15.1%; growth at 10 µM [16]: -9.18%; growth at 10 µM [17]: -90.5%; growth at 10 µM (MCF7): -67.5%; growth at 10 µM (MDA-MB-231): -80%; growth at 10 µM [18]: -22.2%; growth at 10 µM [19]: -55.3%; growth at 10 µM (T47D): -46.1%; growth at 10 µM (MDA-MB-468): -84.8%
O=C1NC(=O)C(=Cc2cn(CC(O)Cn3cc(C=C4C(=O)NC(=O)NC4=O)c4ccccc43)c3ccccc23)C(=O)N1	105%	107%	110%	98.5%	96.9%	101%	94.7%	97.1%	79.2%	88.3%	102%	93.4%	103%	108%	90.2%	97.7%	98.7%	109%	111%	101%	growth at 10 µM [20]: 101%; growth at 10 µM [9]: 106%; growth at 10 µM [10]: 97.3%; growth at 10 µM [11]: 100%; growth at 10 µM [12]: 117%; growth at 10 µM [13]: 102%; growth at 10 µM (A498): 106%; growth at 10 µM (ACHN): 105%; growth at 10 µM [14]: 101%; growth at 10 µM [15]: 105%; growth at 10 µM [16]: 86%; growth at 10 µM [17]: 104%; growth at 10 µM (MCF7): 91.1%; growth at 10 µM (MDA-MB-231): 105%; growth at 10 µM [18]: 108%; growth at 10 µM [19]: 82.6%; growth at 10 µM (T47D): 91.8%; growth at 10 µM (MDA-MB-468): 96.7%
CC1=NN(c2cccc(Cl)c2)C(=O)/C1=C\c1cn(CC(O)Cn2cc(/C=C3\C(=O)N(c4cccc(Cl)c4)N=C3C)c3ccccc32)c2ccccc12	106%	101%	104%	109%	96.3%	101%	105%	97.6%	99.3%	112%	108%	104%	111%	94.2%	93.4%	89.6%	101%	106%	109%	101%	growth at 10 µM [20]: 122%; growth at 10 µM [9]: 112%; growth at 10 µM [10]: 104%; growth at 10 µM [11]: 103%; growth at 10 µM [12]: 115%; growth at 10 µM [13]: 110%; growth at 10 µM (A498): 119%; growth at 10 µM (ACHN): 107%; growth at 10 µM [14]: 98.8%; growth at 10 µM [15]: 118%; growth at 10 µM [16]: 86.4%; growth at 10 µM [17]: 111%; growth at 10 µM (MCF7): 97.9%; growth at 10 µM (MDA-MB-231): 97.2%; growth at 10 µM [18]: 102%; growth at 10 µM [19]: 109%; growth at 10 µM (T47D): 88%; growth at 10 µM (MDA-MB-468): 123%
CN1C(=O)C(=Cc2cn(CC(O)Cn3cc(C=C4C(=O)N(C)C(=O)N(C)C4=O)c4ccccc43)c3ccccc23)C(=O)N(C)C1=O	98.3%	97.3%	106%	86.2%	94.3%	91.7%	87.9%	108%	80.3%	112%	102%	92%	107%	103%	72.3%	87.7%	89.7%	107%	109%	97%	growth at 10 µM [20]: 80.4%; growth at 10 µM [9]: 88.3%; growth at 10 µM [10]: 78.8%; growth at 10 µM [11]: 97.2%; growth at 10 µM [12]: 114%; growth at 10 µM [13]: 85.2%; growth at 10 µM (A498): 98.4%; growth at 10 µM (ACHN): 93.7%; growth at 10 µM [14]: 90.8%; growth at 10 µM [15]: 117%; growth at 10 µM [16]: 63.8%; growth at 10 µM [17]: 106%; growth at 10 µM (MCF7): 91.8%; growth at 10 µM (MDA-MB-231): 78.3%; growth at 10 µM [18]: 97.3%; growth at 10 µM [19]: 92.3%; growth at 10 µM (T47D): 91.8%; growth at 10 µM (MDA-MB-468): 19.4%
